# Experimental data published in patent US20130310256A1, “HERBICIDAL COMPOSITIONS COMPRISING 4-AMINO-3-CHLORO-5-FLUORO-6-(4-CHLORO-2-FLUORO-3-METHOXYPHENYL) PYRIDINE-2-CARBOXYLIC ACID OR A DERIVATIVE THEREOF AND VLCFA AND LIPID SYNTHESIS INHIBITING HERBICIDES” (DOW AGROSCIENCES LLC, priority 2008, published 2013).
# Key:
# IPOHE = test: Example IV: pre-emergence soil-applied weed control, greenhouse; format: in vivo, Ipomoea hederacea Jacq. (ivyleaf morningglory); details: 28 DAA
# From the text: Seeds or nutlets of the desired test plant species were planted in a soil matrix prepared by mixing a loam soil (32 percent silt, 23 percent clay, and 45 percent sand, with a pH of about 6.5 and an organic matter content of about 1.9 percent) and calcareous grit in an 80 to 20 ratio. The soil matrix was contained in plastic pots with a volume of 1 quart and a surface area of 83.6 square centimeters (cm^2).
# Treatments consisted of the benzyl ester of 4-amino-3-chloro-5-fluoro-6-(4-chloro-2-fluoro-3-methoxy-phenyl)pyridine-2-carboxylic acid (compound A) formulated as an SC (suspension concentrate) and various herbicidal components alone and in combination. Forms of compound A were applied on an acid equivalent basis.
# Other herbicidal components were applied on an active ingredient basis and included very long chain fatty acid (VLCFA) synthesis-inhibiting and fatty acid/lipid synthesis-inhibiting herbicides alachlor (technical grade material), dimethenamid-P formulated as Outlook®, and S-metolachlor formulated as Dual® II Magnum.
# (§1) Treatment requirements were calculated based upon the rates being tested, the concentration of active ingredient or acid equivalent in the formulation, and a 12 mL application volume at a rate of 187 L/ha.
# For treatments comprised of formulated compounds, measured amounts of compounds were placed individually in 25 mL glass vials and diluted in a volume of 1.25% (v/v) Agri-Dex® crop oil concentrate (COC) to obtain 12× stock solutions. […] Application solutions were prepared by adding an appropriate amount of each stock solution (e.g., 1 mL) and diluted to the appropriate final concentrations with the addition of 10 mL of an aqueous mixture of 1.25% (v/v) COC so that the final spray solutions contained 1.25% (v/v) COC.
# (§2) For treatments comprised of technical compounds, weighed amounts can be placed individually in 25 mL glass vials and dissolved in a volume of 97:3 (v/v) acetone/DMSO to obtain 12× stock solutions. […] Application solutions can be prepared by adding an appropriate amount of each stock solution (e.g., 1 mL) and diluted to the appropriate final concentrations with the addition of 10 mL of an aqueous mixture of 1.5% (v/v) COC so that the final spray solutions contain 1.25% (v/v) COC. When technical materials are used, the concentrated stock solutions can be added to the spray solutions so that the final acetone and DMSO concentrations of the application solutions are 16.2% and 0.5%, respectively.
# For treatments comprised of formulated and technical compounds, weighed amounts of the technical materials were placed individually in 25 mL glass vials and dissolved in a volume of 97:3 (v/v) acetone/DMSO to obtain 12× stock solutions, and measured amounts of the formulated compounds were placed individually in 25 mL glass vials and diluted in a volume of 1.5% (v/v) COC or water to obtain 12× stock solutions. […] Application solutions were prepared by adding an appropriate amount of each stock solution (e.g., 1 mL) and diluted to the appropriate final concentrations with the addition of an appropriate amount of an aqueous mixture of 1.5% (v/v) COC so that the final spray solutions contained 1.25% (v/v) COC. As required, additional water and/or 97:3 (v/v) acetone/DMSO was added to individual application solutions so that the final acetone and DMSO concentrations of the application solutions being compared were 8.1% and 0.25%, respectively.
# All stock solutions and applications solutions were visually inspected for compound compatibility prior to application. Spray solutions were applied to the soil with an overhead Mandel track sprayer equipped with a 8002E nozzles calibrated to deliver 187 L/ha over an application area of 0.503 m^2 at a spray height of 18 inches (46 cm) above average pot height. Control pots were sprayed in the same manner with the solvent blank.
# The treated and control pots were placed in a greenhouse and top watered as needed. […]
# ECHCG = test: Example I: postemergence foliar-applied weed control, greenhouse; format: in vivo, Echinochloa crus-galli (L.) Beauv. (barnyardgrass); details: foliar
# From the text: (§3) Seeds or nutlets of the desired test plant species were planted in a soil matrix prepared by mixing a loam or sandy loam soil (e.g., 28.6 percent silt, 18.8 percent clay, and 52.6 percent sand, with a pH of about 5.8 and an organic matter content of about 1.8 percent) and calcareous grit in an 80 to 20 ratio. The soil matrix was contained in plastic pots with a volume of 1 quart and a surface area of 83.6 square centimeters (cm^2). When required to ensure good germination and healthy plants, a fungicide treatment and/or other chemical or physical treatment was applied. The plants were grown for 8-22 days in a greenhouse with an approximate 14 hr photoperiod which was maintained at about 29° C. during the day and 26° C. during the night. Nutrients (Peters Excel® 15-5-15 5-Ca 2-Mg and iron chelate) were applied in the irrigation solution as needed and water was added on a regular basis. Supplemental lighting was provided with overhead metal halide 1000-Watt lamps as necessary. The plants were employed for testing when they reached the first through fourth true leaf stage.
# (§4) Treatments consisted of the acid or esters of 4-amino-3-chloro-5-fluoro-6-(4-chloro-2-fluoro-3-methoxy-phenyl)pyridine-2-carboxylic acid (Compound A), each formulated as an SC (suspension concentrate), and various herbicidal components alone and in combination. Forms of compound A were applied on an acid equivalent basis.
# (§5) Other herbicidal components were applied on an active ingredient basis and included very long chain fatty acid (VLCFA) synthesis-inhibiting and fatty acid/lipid synthesis-inhibiting herbicides acetochlor (technical grade material), acetochlor+dichlormid formulated as Topnotch®, pretilachlor (technical grade material), butachlor formulated as Butachlor EC, fentrazamide formulated as Fentrazamide EC, thiobencarb formulated as Bolero® 8EC, cafenstrole formulated as Himeadow® WP or Lapost® Flowable, benfuresate formulated as Full Shot®, dimethenamid-P formulated as Outlook®, indanofan (technical grade material), flufenacet formulated as Define® DF, mefenacet (technical grade material), S-metolachlor formulated as Dual® II Magnum, pethoxamid formulated as Successor® 600, and pyroxasulfone (technical grade material).
# as §1
# (§6) For treatments comprised of formulated compounds, measured amounts of compounds were placed individually in 25 mL glass vials and diluted in a volume of 1.25% (v/v) Agri-Dex® crop oil concentrated to obtain 12× stock solutions. […] Application solutions were prepared by adding an appropriate amount of each stock solution (e.g., 1 mL) and diluted to the appropriate final concentrations with the addition of 10 mL of an aqueous mixture of 1.25% (v/v) crop oil concentrate so that the final spray solutions contained 1.25+/−0.05% (v/v) crop oil concentrate.
# as §2, with “97:3 v/v” for “97:3 (v/v)”, “(v/v) crop oil concentrate” for “(v/v) COC”, “(v/v) crop oil concentrate.” for “(v/v) COC.”, “respectively. […]” for “respectively.”
# SASKR = test: Example III: post-emergence foliar-applied weed control in cereal crops, greenhouse; format: in vivo, Salsola tragus L.; details: 21 DAA
# Description: (§7) Seeds of the desired test plant species were planted in Sun Gro MetroMix® 306 planting mixture, which typically has a pH of 6.0 to 6.8 and an organic matter content of about 30 percent, in plastic pots with a surface area of 103.2 square centimeters (cm^2). When required to ensure good germination and healthy plants, a fungicide treatment and/or other chemical or physical treatment was applied. The plants were grown for 7-36 days in a greenhouse with an approximate 14 hour photoperiod which was maintained at about 18° C. during the day and 17° C. during the night. Nutrients and water were added on a regular basis and supplemental lighting was provided with overhead metal halide 1000-Watt lamps as necessary. The plants were employed for testing when they reached the second or third true leaf stage.
# (§8) Treatments consisted of the benzyl ester of 4-amino-3-chloro-5-fluoro-6-(4-chloro-2-fluoro-3-methoxy-phenyl)pyridine-2-carboxylic acid (Compound A), formulated as an SC (suspension concentrate), and a second cereal herbicide alone and in combination.
# (§9) Measured aliquots of the benzyl ester of 4-amino-3-chloro-5-fluoro-6-(4-chloro-2-fluoro-3-methoxy-phenyl)pyridine-2-carboxylic acid (Compound A) were placed in 25 milliliter (mL) glass vials and diluted in a volume of 1.25% (v/v) Agri-dex crop oil concentrated to obtain stock solutions. Compound requirements are based upon a 12 mL application volume at a rate of 187 liters per hectare (L/ha). Spray solutions of the second cereal herbicide and experimental compound mixtures were prepared by adding the stock solutions to the appropriate amount of dilution solution to form 12 mL spray solution with active ingredients in two- and three-way combinations. Formulated compounds were applied to the plant material with an overhead Mandel track sprayer equipped with an 8002E nozzle calibrated to deliver 187 L/ha over an application area of 0.503 square meters (m^2) at a spray height of 18 inches (46 cm) above average plant canopy. Control plants were sprayed in the same manner with the solvent blank.
# (§10) The treated plants and control plants were placed in a greenhouse as described above and watered by sub-irrigation to prevent wash-off of the test compounds. After 20-22 days, the condition of the test plants as compared with that of the control plants was determined visually and scored on a scale of 0 to 100 percent where 0 corresponds to no injury and 100 corresponds to complete kill.
# (§11) Colby's equation was used to determine the herbicidal effects expected from the mixtures (Colby, S. R. 1967. Calculation of the synergistic and antagonistic response of herbicide combinations. Weeds 15:20-22.).
# CIRAR = test: as above; format: in vivo, Cirsium arvense (L.) Scop.; details: 21 DAA
# Description: as §7, §8, §9, §10, §11
# STEME = test: as above; format: in vivo, Stellaria media (L.) Vill.; details: 21 DAA
# Description: as §7, §8, §9, §10, §11
# SINAR = test: as above; format: in vivo, Sinapis arvensis L.; details: 21 DAA
# Description: as §7, §8, §9, §10, §11
# BRAPP = test: Example I: postemergence foliar-applied weed control, direct seeded rice weeds, greenhouse; format: in vivo; details: foliar
# From the text: as §3, §4, §5, §1, §6
# as §2, with “97:3 v/v” for “97:3 (v/v)”, “(v/v) crop oil concentrate” for “(v/v) COC”, “(v/v) crop oil concentrate.” for “(v/v) COC.”, “respectively. […]” for “respectively.”
# PAPRH = test: Example III: post-emergence foliar-applied weed control in cereal crops, greenhouse; format: in vivo, Papaver rhoeas L.; details: 21 DAA
# Description: as §7, §8, §9, §10, §11
# KCHSC = test: as above; format: in vivo, Kochia scoparia (L.) Schrad.; details: 21 DAA
# Description: as §7, §8, §9, §10, §11
# CHEAL = test: as above; format: in vivo, Chenopodium album L.; details: 21 DAA
# Description: as §7, §8, §9, §10, §11
smiles,measurement,setting,value
CCc1cccc(C)c1N(C(=O)CCl)C(C)COC (stereo not drawn) [S-Metolachlor],Visual Weed Control IPOHE Obs,IPOHE; 387.5 gai/ha,25%
same,Visual Weed Control IPOHE Obs,IPOHE; 775 gai/ha,0%
same,Visual Weed Control IPOHE Obs,IPOHE; 1550 gai/ha,33%
same,Visual Weed Control (%) - 20 DAA ECHCG Obs,ECHCG; 387.5 gai/ha,20%
same,Visual Weed Control (%) - 20 DAA ECHCG Obs,ECHCG; 775 gai/ha,55%
"CC(C)N(C(=O)COc1nnc(C(F)(F)F)s1)c1ccc(F)cc1 [Flufenacet, N-(4-fluorophenyl)-N-(1-methylethyl)-2-[[5-(trifluoromethyl)-1,3,4-thiadiazol-2-yl]oxy]acetamide]",Visual Weed Control SASKR Obs,SASKR; 60 gai/ha,5%
same,Visual Weed Control SASKR Obs,SASKR; 120 gai/ha,5%
same,Visual Weed Control SASKR Obs,SASKR; 240 gai/ha,13%
same,Visual Weed Control CIRAR Obs,CIRAR; 60 gai/ha,0%
same,Visual Weed Control CIRAR Obs,CIRAR; 120 gai/ha,0%
same,Visual Weed Control CIRAR Obs,CIRAR; 240 gai/ha,17%
same,Visual Weed Control STEME Obs,STEME; 60 gai/ha,0%
same,Visual Weed Control STEME Obs,STEME; 120 gai/ha,5%
same,Visual Weed Control STEME Obs,STEME; 240 gai/ha,42%
same,Visual Weed Control SINAR Obs,SINAR; 60 gai/ha,5%
same,Visual Weed Control SINAR Obs,SINAR; 120 gai/ha,8%
same,Visual Weed Control (%) - 22 DAA BRAPP Obs,BRAPP; 187.5 gai/ha,10%
same,Visual Weed Control (%) - 22 DAA BRAPP Obs,BRAPP; 375 gai/ha,20%
same,Visual Weed Control (%) - 22 DAA BRAPP Obs,BRAPP; 750 gai/ha,40%
same,Visual Weed Control PAPRH Obs,PAPRH; 60 gai/ha,0%
same,Visual Weed Control PAPRH Obs,PAPRH; 120 gai/ha,5%
same,Visual Weed Control PAPRH Obs,PAPRH; 240 gai/ha,7%
same,Visual Weed Control KCHSC Obs,KCHSC; 60 gai/ha,5%
same,Visual Weed Control KCHSC Obs,KCHSC; 120 gai/ha,5%
same,Visual Weed Control KCHSC Obs,KCHSC; 240 gai/ha,17%
same,Visual Weed Control CHEAL Obs,CHEAL; 60 gai/ha,0%
same,Visual Weed Control CHEAL Obs,CHEAL; 120 gai/ha,0%
